Assay results: patent publication US20070037788A1, “Tricyclic steroid hormone nuclear receptor modulators” (Eli Lilly and Company, priority 2003, published 2007)
Where a name gives a salt, the structure may show the parent alone.

Biological target: T1, human MR (Homo sapiens, UniProt P08235)
T1 construct: The full length human MR gene is cloned from a human kidney or human brain cDNA library; made in house; host or cells: SF9 insect cells (baculovirus)
T1 sequence (P08235 1-984): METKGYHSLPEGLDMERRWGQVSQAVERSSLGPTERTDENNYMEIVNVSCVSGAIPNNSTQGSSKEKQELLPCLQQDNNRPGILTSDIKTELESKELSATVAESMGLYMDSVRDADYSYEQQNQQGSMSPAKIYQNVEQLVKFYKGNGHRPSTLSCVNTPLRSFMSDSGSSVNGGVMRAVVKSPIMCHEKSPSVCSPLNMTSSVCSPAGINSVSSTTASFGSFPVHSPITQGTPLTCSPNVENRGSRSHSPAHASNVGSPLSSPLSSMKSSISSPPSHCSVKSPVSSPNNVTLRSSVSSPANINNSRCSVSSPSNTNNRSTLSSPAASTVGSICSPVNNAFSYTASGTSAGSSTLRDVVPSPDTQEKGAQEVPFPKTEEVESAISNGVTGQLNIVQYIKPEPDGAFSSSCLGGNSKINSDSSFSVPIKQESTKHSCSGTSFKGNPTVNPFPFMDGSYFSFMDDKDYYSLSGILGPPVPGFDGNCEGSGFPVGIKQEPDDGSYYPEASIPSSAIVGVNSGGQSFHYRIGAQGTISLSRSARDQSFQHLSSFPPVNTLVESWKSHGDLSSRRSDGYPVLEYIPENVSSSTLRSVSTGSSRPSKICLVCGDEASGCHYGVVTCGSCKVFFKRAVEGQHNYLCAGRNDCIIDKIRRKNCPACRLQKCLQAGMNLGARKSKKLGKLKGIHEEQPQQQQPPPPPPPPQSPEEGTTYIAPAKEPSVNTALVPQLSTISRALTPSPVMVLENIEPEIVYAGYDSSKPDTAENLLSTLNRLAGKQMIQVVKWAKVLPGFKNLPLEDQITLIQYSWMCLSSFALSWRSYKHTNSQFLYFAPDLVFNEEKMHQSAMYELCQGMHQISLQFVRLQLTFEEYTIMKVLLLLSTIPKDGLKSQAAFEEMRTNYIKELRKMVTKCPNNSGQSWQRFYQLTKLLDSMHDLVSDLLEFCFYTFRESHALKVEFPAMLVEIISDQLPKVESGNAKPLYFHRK
Assay: Mineralocorticoid Receptor Binding Assay (Method 1)
Settings: [3H]-aldosterone
Method: The full length human MR gene is cloned from a human kidney or human brain cDNA library. Briefly, using synthetic oligonucleotide primers (Eli Lilly and Company, Indianapolis) directed to nucleotides 20-54 and 3700-3666 of the human MR, polymerase chain reaction (PCR) is performed under standard conditions using a human cDNA library. The PCR reaction is performed in a final volume of 50 μl containing about 1 μl of a 50× stock solution of polymerase; about 1 μl of a 50× stock solution of DNTP; about 5 μl of an appropriate PCR buffer; about 1 μl of each primer; about 5 μl of a H. kidney or H. brain cDNA library; and about 36 μl of water. The reaction is allowed to denature for about 30 seconds at 95 degrees Celsius, anneal for about 30 seconds at 55 degrees Celsius, and extend for about 5 minutes at 72 degrees Celsius, the sequence being repeated for a total of about 35 cycles. The desired PCR product (3.68 Kb) is confirmed by gel electrophoresis and subsequently cut from the gel and stored at about −20 degrees Celsius until extraction. To extract the cDNA product from the agarose gel, the QIAEX II Gel Extraction protocol (QIAGEN, Inc.) is employed according to the manufacturer's instructions. Following extraction, the MR cDNA is cloned into an appropriate cloning vector (Zero Blunt TOPO PCR Cloning Kit (Invitrogen, Inc.) and a pAcHLT-baculovirus transfer vector (B.D./Pharminogen), then expressed in SF9 insect cells, essentially according to manufacturer's instructions. Sf9 cells are grown at a scale where gram quantity cell pellets are obtained for subsequent use in the MR binding assay. Harvested cell pellets are lysed by repeated freeze-thaw cycles (about 4) in a suitable lysis buffer then centrifuged at about 1×10^3 G (with the supernatant being saved for future assays).
MR binding assays are performed in a final total volume of about 250 μl containing about 20-25 μg of protein and 0.5 nM of [^3H]-aldosterone plus varying concentrations of test compound or vehicle. The assay binding buffer consists of 30 mM sodium molybdate, 30 mM of TRIS-HCl, 5 mM sodium phosphate, 5 mM sodium pyrophosphate, and about 10% glycerol, pH=7.5.
Briefly, assays are prepared at RT in 96-well Falcon 3072 plates, each well containing 210 μl of binding buffer, 10 μl of [^3H]-aldosterone, 10 μl of test compound/vehicle, and 20 μl of the resuspended receptor protein extract. Incubations are carried out at 4 degrees Celsius with shaking for about 16 hours. 200 μl aliquots of each incubation are filtered onto Millipore HA 0.45 micron 96-well filter plates, pre-moistened with cold 30 mM TRIS-HCl. The filter plates are suctioned dry with vacuum and immediately washed 3× with cold 30 mM TRIS-HCl. The plates are then punched out and the amount of receptor-ligand complex is determined by liquid scintillation counting using 4 ml of Ready Protein Plus™ liquid scintillation cocktail.

| SMILES | Ki [nM] |
| --- | --- |
| CC(C)(CN1CCOCC1)n1c(=O)[nH]c2cc(/C=C3\c4ccccc4COc4cc(F)ccc43)ccc21 [Example 1, 1-(1,1-Dimethyl-2-morpholin-4-yl-ethyl)-5-(3-fluoro-6H-dibenzo[b,e]oxepin-11-ylidenemethyl)-1,3-dihydro-benzoimidazol-2-one, E isomer] | < 500 |
| CN1CCC(n2c(=O)[nH]c3cc(/C=C4/c5ccc(F)cc5OCc5c(F)cccc54)ccc32)CC1 [Example 2, 5-(3,7-Difluoro-6H-dibenzo[b,e]oxepine-11-ylidenemethyl)-1-(1-methyl-piperidin-4-yl)-1,3-dihydro-benzoimidazol-2-one, E-isomer] | < 500 |
| CN1CCC(n2c(=O)[nH]c3cc(/C=C4\c5ccccc5COc5cc(F)ccc54)ccc32)CC1 [Example 3, 5-(3-Fluoro-6H-dibenzo[b,e]oxepin-11-ylidenemethyl)-1-(1-methyl-piperidin-4-yl)-1,3-dihydro-benzoimidazol-2-one, E isomer] | < 500 |
| CN1CCC(n2c(=O)[nH]c3cc(/C=C4\c5ccc(F)cc5COc5cc(F)ccc54)ccc32)CC1 [Example 4, 5-(3,8-Difluoro-6H-dibenzo[b,e]oxepin-11-ylidenemethyl)-1-(1-methyl-piperidin-4-yl) -1,3-dihydro-benzoimidazol-2-one, E isomer] | < 500 |
| CCN1CC[C@@H](n2c(=O)[nH]c3cc(/C=C4\c5ccc(F)cc5COc5cc(F)ccc54)ccc32)C1 [Example 5, 5-(3,8-Difluoro-6H-dibenzo[b,e]oxepin-11-ylidenemethyl)-1-(1-ethyl-pyrrolidin-3-yl) -1,3-dihydro-benzoimidazol-2-one, HOAc salt, E isomer, chiral] | < 500 |
| CN1CCN(CCCn2c(=O)[nH]c3cc(/C=C4\c5ccccc5COc5cc(F)ccc54)ccc32)CC1 [Example 7] | < 500 |
| CN1CCN(CCn2c(=O)[nH]c3cc(/C=C4\c5ccccc5COc5cc(F)ccc54)ccc32)CC1 [Example 8] | < 500 |
| O=c1[nH]c2cc(/C=C3\c4ccccc4COc4cc(F)ccc43)ccc2n1[C@H]1CCNC1 [Example 9] | < 500 |
| C[C@H](CN1CCOCC1)n1c(=O)[nH]c2cc(/C=C3\c4ccccc4COc4cc(F)ccc43)ccc21 [Example 10] | < 500 |
| C[C@@H](CN1CCOCC1)n1c(=O)[nH]c2cc(/C=C3\c4ccccc4COc4cc(F)ccc43)ccc21 [Example 11] | < 500 |
| O=c1[nH]c2cc(/C=C3\c4ccccc4COc4cc(F)ccc43)ccc2n1C1CCNCC1 [Example 12] | < 500 |
| C[C@@H]1CN(CCn2c(=O)[nH]c3cc(/C=C4\c5ccccc5COc5cc(F)ccc54)ccc32)C[C@H](C)O1 [Example 13] | < 500 |
| O=c1[nH]c2cc(/C=C3\c4ccccc4COc4cc(F)ccc43)ccc2n1CCN1CCNCC1 [Example 14] | < 500 |
| O=c1[nH]c2cc(/C=C3\c4ccccc4COc4cc(F)ccc43)ccc2n1C1CCNC1 (centres unmarked) [Example 15] | < 500 |
| O=c1[nH]c2cc(/C=C3\c4ccccc4COc4cc(F)ccc43)ccc2n1C1CCNC1 (centres unmarked) [Example 16] | < 500 |
| O=c1[nH]c2cc(/C=C3\c4ccccc4COc4cc(F)ccc43)ccc2n1C1CNC1 [Example 17] | < 500 |
| O=c1[nH]c2cc(/C=C3\c4ccccc4COc4cc(F)ccc43)ccc2n1C[C@@H]1CCCN1 [Example 18] | < 500 |
| O=c1[nH]c2cc(/C=C3\c4ccccc4COc4cc(F)ccc43)ccc2n1C[C@H]1CCCN1 [Example 19] | < 500 |
| CN1CCN(CCn2c(=O)[nH]c3cc(/C=C4\c5ccc(F)cc5COc5cc(F)ccc54)ccc32)CC1 [Example 20] | < 500 |
| O=c1[nH]c2cc(/C=C3\c4ccc(F)cc4COc4cc(F)ccc43)ccc2n1CCN1CCCC1 [Example 21] | < 500 |
| C[C@H](CN1CCOCC1)n1c(=O)[nH]c2cc(/C=C3\c4ccc(F)cc4COc4cc(F)ccc43)ccc21 [Example 22] | < 500 |

| SMILES | Ki [nM] |
| --- | --- |
| C[C@@H](CN1CCOCC1)n1c(=O)[nH]c2cc(/C=C3\c4ccc(F)cc4COc4cc(F)ccc43)ccc21 [Example 23] | < 500 |
| CC(C)(CN1CCOCC1)n1c(=O)[nH]c2cc(/C=C3\c4ccc(F)cc4COc4cc(F)ccc43)ccc21 [Example 24] | < 500 |
| C[C@@H]1CN(CCn2c(=O)[nH]c3cc(/C=C4\c5ccc(F)cc5COc5cc(F)ccc54)ccc32)C[C@H](C)O1 [Example 25] | < 500 |
| O=c1[nH]c2cc(/C=C3\c4ccc(F)cc4COc4cc(F)ccc43)ccc2n1CCCN1CCOCC1 [Example 26] | < 500 |
| O=c1[nH]c2cc(/C=C3\c4ccc(F)cc4COc4cc(F)ccc43)ccc2n1C1CCNCC1 [Example 28] | < 500 |
| O=c1[nH]c2cc(/C=C3\c4ccc(F)cc4COc4cc(F)ccc43)ccc2n1[C@H]1CCNC1 [Example 29] | < 500 |
| O=c1[nH]c2cc(/C=C3\c4ccc(F)cc4COc4cc(F)ccc43)ccc2n1C1CNC1 [Example 30] | < 500 |
| O=c1[nH]c2cc(/C=C3\c4ccc(F)cc4COc4cc(F)ccc43)ccc2n1[C@@H]1CCNC1 [Example 31] | < 500 |
| CN1CC[C@H](n2c(=O)[nH]c3cc(/C=C4\c5ccc(F)cc5COc5cc(F)ccc54)ccc32)C1 [Example 32] | < 500 |
| CCN1CC[C@H](n2c(=O)[nH]c3cc(/C=C4\c5ccc(F)cc5COc5cc(F)ccc54)ccc32)C1 [Example 33] | < 500 |
| CN1CCN(CCn2c(=O)[nH]c3cc(/C=C4/c5ccc(F)cc5OCc5c(F)cccc54)ccc32)CC1 [Example 34] | < 500 |
| O=c1[nH]c2cc(/C=C3/c4ccc(F)cc4OCc4c(F)cccc43)ccc2n1CCN1CCCC1 [Example 35] | < 500 |
| O=c1[nH]c2cc(/C=C3/c4ccc(F)cc4OCc4c(F)cccc43)ccc2n1C1CCNCC1 [Example 36] | < 500 |
| O=c1[nH]c2cc(/C=C3/c4ccc(F)cc4OCc4c(F)cccc43)ccc2n1[C@H]1CCNC1 [Example 37] | < 500 |
| C[C@H](CN1CCOCC1)n1c(=O)[nH]c2cc(/C=C3/c4ccc(F)cc4OCc4c(F)cccc43)ccc21 [Example 38] | < 500 |
| C[C@@H](CN1CCOCC1)n1c(=O)[nH]c2cc(/C=C3/c4ccc(F)cc4OCc4c(F)cccc43)ccc21 [Example 39] | < 500 |
| CC(C)(CN1CCOCC1)n1c(=O)[nH]c2cc(/C=C3/c4ccc(F)cc4OCc4c(F)cccc43)ccc21 [Example 40] | < 500 |
| C[C@@H]1CN(CCn2c(=O)[nH]c3cc(/C=C4/c5ccc(F)cc5OCc5c(F)cccc54)ccc32)C[C@H](C)O1 [Example 41] | < 500 |
| O=c1[nH]c2cc(/C=C3/c4ccc(F)cc4OCc4c(F)cccc43)ccc2n1CCCN1CCOCC1 [Example 42] | < 500 |
| O=c1[nH]c2cc(/C=C3/c4ccc(F)cc4OCc4c(F)cccc43)ccc2n1CCN1CCNCC1 [Example 43] | < 500 |
